PubChem BioAssay AID180 (DTP/NCI, 2004)
Several values for one entry are separate records, joined by “and”; a condition that tells them apart may be missing. Equal values may be shown once.

Tested on: BDF1 mice, Adenocarcinoma 755 s.c., tumor weight T/C
Experiment: NCI In Vivo Anticancer Drug Screen. Data for tumor model Adenocarcinoma 755 (subcutaneous) in B6D2F1 (BDF1) mice
Conditions: endpoint: mean tumor weight, higher = larger tumour
Summary of the method: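 In vivo antitumor screen on a transplantable tumor line. Result equals the measure in compound-treated animals divided by the same measure in vehicle controls.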

[1] = dose: 12.5 mg/kg/injection, schedule: Q01DX011 (ip), vehicle: methylcellulose (MC)
[2] = dose: 25.0 mg/kg/injection, schedule: Q01DX011 (ip), vehicle: methylcellulose (MC)
[3] = dose: 400.0 mg/kg/injection, schedule: Q01DX011 (ip), vehicle: other

## CCCOP(=S)(N1CC1C)N1CC1(C)C (configuration not stated)
dose: 0.5 mg/kg/injection, schedule: Q01DX011 (ip), vehicle: carboxymethylcellulose (CMC)
  T/C: 68 % of control
dose: 1.0 mg/kg/injection, schedule: Q01DX011 (ip), vehicle: carboxymethylcellulose (CMC)
  T/C: 104 % of control
dose: 12.0 mg/kg/injection, schedule: Q01DX011 (ip), vehicle: carboxymethylcellulose (CMC)
  T/C: 79 % of control
dose: 24.0 mg/kg/injection, schedule: Q01DX011 (ip), vehicle: carboxymethylcellulose (CMC)
  T/C: 61 % of control

## Cc1ccc(S(=O)(=O)OCCC(=O)N2CCN(C(=O)CCOS(=O)(=O)c3ccc(C)cc3)CC2)cc1
dose: 22.0 mg/kg/injection, schedule: Q01DX011 (ip), vehicle: methylcellulose (MC)
  T/C: 57 % of control
dose: 43.0 mg/kg/injection, schedule: Q01DX011 (ip), vehicle: methylcellulose (MC)
  T/C: 47 % of control
dose: 87.0 mg/kg/injection, schedule: Q01DX011 (ip), vehicle: methylcellulose (MC)
  T/C: 80 % of control
dose: 175.0 mg/kg/injection, schedule: Q01DX011 (ip), vehicle: methylcellulose (MC)
  T/C: 60 % of control

## CCc1nc(N)nc(N)c1-c1ccc(Cl)c(Cl)c1
dose: 0.5 mg/kg/injection, schedule: Q01DX011 (ip), vehicle: methylcellulose (MC)
  T/C: 51 % of control
dose: 1.0 mg/kg/injection, schedule: Q01DX011 (ip), vehicle: methylcellulose (MC)
  T/C: 62 % of control and 71 % of control
dose: 2.0 mg/kg/injection, schedule: Q01DX011 (ip), vehicle: methylcellulose (MC)
  T/C: 52 % of control

## CC(C)Cn1cnc2c(SCc3ccc(Cl)cc3Cl)nc(N)nc21
dose: 9.0 mg/kg/injection, schedule: Q01DX011 (ip), vehicle: other
  T/C: 78 % of control
[1]
  T/C: 41 % of control
dose: 18.0 mg/kg/injection, schedule: Q01DX011 (ip), vehicle: other
  T/C: 78 % of control
[2]
  T/C: 65 % of control
dose: 37.0 mg/kg/injection, schedule: Q01DX011 (ip), vehicle: other
  T/C: 92 % of control
dose: 38.0 mg/kg/injection, schedule: Q01DX011 (ip), vehicle: methylcellulose (MC)
  T/C: 74 % of control
dose: 50.0 mg/kg/injection, schedule: Q01DX011 (ip), vehicle: methylcellulose (MC)
  T/C: 87 % of control
dose: 75.0 mg/kg/injection, schedule: Q01DX011 (ip), vehicle: methylcellulose (MC)
  T/C: 113 % of control
dose: 100.0 mg/kg/injection, schedule: Q01DX011 (ip), vehicle: methylcellulose (MC)
  T/C: 69 % of control
dose: 150.0 mg/kg/injection, schedule: Q01DX011 (ip), vehicle: methylcellulose (MC)
  T/C: 80 % of control
dose: 200.0 mg/kg/injection, schedule: Q01DX011 (ip), vehicle: other
  T/C: 7 % of control and 15 % of control
dose: 300.0 mg/kg/injection, schedule: Q01DX011 (ip), vehicle: methylcellulose (MC)
  T/C: 59 % of control
[3]
  T/C: 24 % of control
dose: 600.0 mg/kg/injection, schedule: Q01DX011 (ip), vehicle: methylcellulose (MC)
  T/C: 91 % of control

## CC1(C)C(=O)CC[C@@]2(C)C1=CC[C@@H]1[C@@H]2CC[C@@]2(C)[C@H]1CC[C@]2(C)O
dose: 25.0 mg/kg/injection, schedule: Q01DX011 (sc), vehicle: steriod suspending solution
  T/C: 105 % of control
dose: 200.0 mg/kg/injection, schedule: Q01DX011 (sc), vehicle: steriod suspending solution
  T/C: 92 % of control
dose: 400.0 mg/kg/injection, schedule: Q01DX011 (sc), vehicle: steriod suspending solution
  T/C: 87 % of control

## CC(O)CNc1ncnc2c1cnn2C (configuration not stated)
dose: 12.5 mg/kg/injection, schedule: Q01DX011 (ip), vehicle: saline
  T/C: 94 % of control
dose: 25.0 mg/kg/injection, schedule: Q01DX011 (ip), vehicle: saline
  T/C: 30 % of control
dose: 50.0 mg/kg/injection, schedule: Q01DX011 (ip), vehicle: saline
  T/C: 10 % of control

## Nc1nc(I)c2ncn(C3OC(CO)C(O)C3O)c2n1 (configuration not stated)
dose: 30.0 mg/kg/injection, schedule: Q01DX011 (ip), vehicle: saline
  T/C: 113 % of control
dose: 60.0 mg/kg/injection, schedule: Q01DX011 (ip), vehicle: saline
  T/C: 121 % of control
dose: 120.0 mg/kg/injection, schedule: Q01DX011 (ip), vehicle: saline
  T/C: 82 % of control
dose: 240.0 mg/kg/injection, schedule: Q01DX011 (ip), vehicle: saline
  T/C: 62 % of control
dose: 400.0 mg/kg/injection, schedule: Q01DX011 (ip), vehicle: saline
  T/C: 9 % of control
dose: 600.0 mg/kg/injection, schedule: Q01DX011 (ip), vehicle: saline
  T/C: 47 % of control

## CCNc1ncnc2c1cnn2C1CCCO1 (configuration not stated)
dose: 3.1 mg/kg/injection, schedule: Q01DX011 (ip), vehicle: methylcellulose (MC)
  T/C: 61 % of control
dose: 6.2 mg/kg/injection, schedule: Q01DX011 (ip), vehicle: methylcellulose (MC)
  T/C: 39 % of control
[1]
  T/C: 3 % of control

## Nc1nc(=S)c2ncn(C3CCCO3)c2[nH]1 (configuration not stated)
dose: 0.7 mg/kg/injection, schedule: Q01DX011 (ip), vehicle: carboxymethylcellulose (CMC)
  T/C: 71 % of control
dose: 1.5 mg/kg/injection, schedule: Q01DX011 (ip), vehicle: carboxymethylcellulose (CMC)
  T/C: 60 % of control
dose: 3.0 mg/kg/injection, schedule: Q01DX011 (ip), vehicle: carboxymethylcellulose (CMC)
  T/C: 38 % of control
dose: 7.5 mg/kg/injection, schedule: Q01DX011 (ip), vehicle: carboxymethylcellulose (CMC)
  T/C: 2 % of control
dose: 15.0 mg/kg/injection, schedule: Q01DX011 (ip), vehicle: carboxymethylcellulose (CMC)
  T/C: 2 % of control

## Cc1cc(Nc2ccccc2Br)nc(N)n1
dose: 15.0 mg/kg/injection, schedule: Q01DX011 (ip), vehicle: methylcellulose (MC)
  T/C: 65 % of control
dose: 31.0 mg/kg/injection, schedule: Q01DX011 (ip), vehicle: methylcellulose (MC)
  T/C: 69 % of control
dose: 62.0 mg/kg/injection, schedule: Q01DX011 (ip), vehicle: methylcellulose (MC)
  T/C: 112 % of control
dose: 125.0 mg/kg/injection, schedule: Q01DX011 (ip), vehicle: methylcellulose (MC)
  T/C: 78 % of control
dose: 250.0 mg/kg/injection, schedule: Q01DX011 (ip), vehicle: methylcellulose (MC)
  T/C: 76 % of control

## CC(Sc1nc(N)nc2nc[nH]c12)C(=O)O (configuration not stated)
dose: 37.5 mg/kg/injection, schedule: Q01DX011 (ip), vehicle: saline
  T/C: 81 % of control
dose: 75.0 mg/kg/injection, schedule: Q01DX011 (ip), vehicle: saline
  T/C: 74 % of control
dose: 150.0 mg/kg/injection, schedule: Q01DX011 (ip), vehicle: saline
  T/C: 45 % of control
dose: 300.0 mg/kg/injection, schedule: Q01DX011 (ip), vehicle: saline
  T/C: 12 % of control

## Nc1nc(=S)c2[nH]cnc2[nH]1.[Cu+2]
dose: 0.62 mg/kg/injection, schedule: Q01DX011 (ip), vehicle: carboxymethylcellulose (CMC)
  T/C: 98 % of control
dose: 1.25 mg/kg/injection, schedule: Q01DX011 (ip), vehicle: carboxymethylcellulose (CMC)
  T/C: 83 % of control
dose: 2.5 mg/kg/injection, schedule: Q01DX011 (ip), vehicle: carboxymethylcellulose (CMC)
  T/C: 105 % of control
dose: 5.0 mg/kg/injection, schedule: Q01DX011 (ip), vehicle: carboxymethylcellulose (CMC)
  T/C: 59 % of control

## Clc1ncnc2c1ncn2C1CCCS1 (configuration not stated)
[2]
  T/C: 107 % of control

## O=C1OC(c2cc(I)c(O)c(I)c2)(c2cc(I)c(O)c(I)c2)c2ccccc21
dose: 0.38 mg/kg/injection, schedule: Q01DX011 (ip), vehicle: carboxymethylcellulose (CMC)
  T/C: 107 % of control
dose: 0.76 mg/kg/injection, schedule: Q01DX011 (ip), vehicle: carboxymethylcellulose (CMC)
  T/C: 68 % of control
dose: 1.56 mg/kg/injection, schedule: Q01DX011 (ip), vehicle: carboxymethylcellulose (CMC)
  T/C: 68 % of control

## C=C(C)CSc1ncnc2nc[nH]c12
dose: 1.5 mg/kg/injection, schedule: Q01DX011 (ip), vehicle: other
  T/C: 82 % of control
dose: 3.0 mg/kg/injection, schedule: Q01DX011 (ip), vehicle: other
  T/C: 78 % of control
dose: 7.0 mg/kg/injection, schedule: Q01DX011 (ip), vehicle: other
  T/C: 22 % of control
dose: 15.0 mg/kg/injection, schedule: Q01DX011 (ip), vehicle: other
  T/C: 5 % of control
dose: 30.0 mg/kg/injection, schedule: Q01DX011 (ip), vehicle: other
  T/C: 5 % of control and 14 % of control
dose: 60.0 mg/kg/injection, schedule: Q01DX011 (ip), vehicle: other
  T/C: 2 % of control
dose: 120.0 mg/kg/injection, schedule: Q01DX011 (ip), vehicle: other
  T/C: 2 % of control

## CN(C)S(=O)(=O)c1nc2nc[nH]c2c(=O)[nH]1
dose: 25.0 mg/kg/injection, schedule: Q01DX011 (ip), vehicle: carboxymethylcellulose (CMC)
  T/C: 70 % of control
dose: 75.0 mg/kg/injection, schedule: Q01DX011 (ip), vehicle: carboxymethylcellulose (CMC)
  T/C: 66 % of control
dose: 225.0 mg/kg/injection, schedule: Q01DX011 (ip), vehicle: carboxymethylcellulose (CMC)
  T/C: 85 % of control

## N#CCCn1cnc2c(Cl)ncnc21
dose: 50.0 mg/kg/injection, schedule: Q01DX011 (ip), vehicle: other
  T/C: 85 % of control
dose: 100.0 mg/kg/injection, schedule: Q01DX011 (ip), vehicle: other
  T/C: 157 % of control
[3]
  T/C: 98 % of control
dose: 600.0 mg/kg/injection, schedule: Q01DX011 (ip), vehicle: other
  T/C: 63 % of control
dose: 800.0 mg/kg/injection, schedule: Q01DX011 (ip), vehicle: other
  T/C: 94 % of control
